Source: publication PMC7360964, “Auto‐inhibition of Mif2/CENP‐C ensures centromere‐dependent kinetochore assembly in budding yeast” (The EMBO Journal, 2020)

How the values were obtained:
Mtw1‐GFP kinetochores = experiment: Kinetochore microscopy (Mtw1-GFP, Spc42-mCherry) in Mif2-overexpressing cells; format: cell-based, budding yeast; conditions: large-budded cells, galactose, 100 cells per strain, 2 independent experiments
Method: Figure 8 Auto‐inhibition of Mif2 is crucial for chromosome segregation and cell viability • Phenotypic analysis of Mif2 mutants using a galactose‐inducible overexpression system. Strains harboring the indicated Mif2 expression constructs on pESC plasmids were plated in serial dilution on doHIS‐glucose or doHIS‐raffinose/galactose plates and incubated at 30°C. • Serial dilution assay of chromosomally integrated Mif2 variants under the control of the pGAL promoter. Strains were plated on YEP‐glucose and YEP‐raffinose/galactose plates and incubated at 25°C. • Analysis of chromosome segregation in strains from (B). Distribution of fluorescently labeled chromosome III was analyzed in large‐budded cells 16 h after switching the medium to galactose. Scale bar represents 2 μm. • Microscopic analysis of kinetochores in Mif2‐overexpressing cells visualizing Mtw1‐GFP and Spc42‐mCherry. Images of representative large‐budded cells after 16 h in galactose are shown. One kinetochore cluster is enlarged in the white box for each strain. Scale bar represents 5 μm. […] Only large‐budded cells were included in the analysis. • Quantification of (D) in which large‐budded cells were classified according to their Mtw1‐GFP signal into the four indicated groups. A total of 100 cells were quantified for every strain. Mean values of the three indicated groups were calculated and plotted in a bar chart. […]

budding yeast = conditions: ref Hornung et al, 2014; cited from earlier work
Source text: Figure 1 Ame1 and Mif2 are Mtw1c receptors that promote outer kinetochore assembly Left panel: Comparison of kinetochore assembly plans. Generally, inner kinetochores are represented by the […] centromere‐associated network (CCAN) of which Ame1 and Mif2 are the only essential subunits in S. cerevisiae. Right panel: Among other functions, Ame1 and Mif2 both act as receptors for the outer kinetochore component Mtw1c using short binding motifs at their N‐termini. An Ame1ΔN is lethal, while a Mif2ΔN mutant is viable. Two different scenarios for Mtw1c‐receptor configurations are indicated.

Mif2‐FRB strains = experiment: Anchor-away growth assay, Mif2 alleles; format: cell-based, budding yeast; conditions: rapamycin
yeast growth = experiment: Galactose-inducible overexpression growth assay (serial dilution); format: cell-based, budding yeast; conditions: two-micron pESC plasmid, 30°C
Source text: What is the consequence of expressing Mif2^Ame1‐N swap in cells? […] To assess this effect in a more systematic manner, we expressed Mif2‐wt, Mif2‐ΔN, or Mif2^Ame1‐N swap under the control of a galactose‐inducible promoter in an otherwise wild‐type background. […] To further analyze the toxic effect of Mif2^Ame1‐N swap in cells, we stably integrated the different Mif2 versions under the control of the GAL10 promoter at the URA3 locus and again analyzed growth on plates. We included an additional strain in which Mif2 swap was mutated so that it cannot bind Mtw1c (R10E mutation in the RxxG motif). […]
Figure 8 Auto‐inhibition of Mif2 is crucial for chromosome segregation and cell viability • Phenotypic analysis of Mif2 mutants using a galactose‐inducible overexpression system. […] Distribution of fluorescently labeled chromosome III was analyzed in large‐budded cells 16 h after switching the medium to galactose. […] Only large‐budded cells were included in the analysis. • Quantification of (D) in which large‐budded cells were classified according to their Mtw1‐GFP signal into the four indicated groups. A total of 100 cells were quantified for every strain. Mean values of the three indicated groups were calculated and plotted in a bar chart. […]

MN = experiment: Analytical SEC of Mif2 variants with MN; format: binding, budding yeast; conditions: 10 μM, 1 h at 4°C
Source text: (§1) If intramolecular interactions between the Mif2 N‐terminus and other parts of the molecule limit the ability to bind MN, then removing this auto‐inhibitory domain should increase the affinity for MN. […] We conclude that apart from residues in its N‐terminus, also residues in the signature motif and AT‐hook of Mif2 are responsible for the ability to adopt an auto‐inhibited conformation.
(§2) Figure 6 Mif2 auto‐inhibition depends on its Cse4 and DNA‐binding motifs • Schematic introduction of Mif2wt and Mif2‐ΔsigAT in which its Cse4 and DNA‐binding motifs have been removed. […]
(§3) The GST pulldown experiment was performed using BSA‐preblocked GSH Sepharose beads. […] Beads were washed twice in pulldown buffer, before Laemmli sample buffer was added to the beads (GST pulldown) or proteins were eluted in pulldown buffer supplemented with 1 mg/ml Flag peptide before addition of Laemmli sample buffer (Flag pulldown) and samples were analyzed on a Coomassie Brilliant Blue‐stained SDS–PAGE gel or Western blotting. […] Elution of proteins was monitored at 280 nm. 100 μl fractions were collected and analyzed by SDS–PAGE and Coomassie Brilliant Blue staining or Western blotting. […] After several washes with lysis buffer, proteins were eluted with 0.2 mg/ml 3xFlag peptide in lysis buffer, and fractions were analyzed by Western blotting. […]

Mtw1‐Nnf1 complex (MN) = experiment: Flag pulldown of MN by Mif2 variants; format: binding, budding yeast; conditions: bait 1 μM, MN 3 μM; Coomassie or Western blot against His-tag on Nnf1
Source text: as §1, §2, §3

Row | Molecule | kinetochore signal localization (Mtw1‐GFP kinetochores) | viability / phenotype (budding yeast) | viability (Mif2‐FRB strains; ctf3 or chl4 deletion backgrounds) | rescue of Mif2-FRB lethality (Mif2‐FRB strains; ctf19Δ background) | effect of overexpression on growth (yeast growth) | binding to MN by SEC (MN) | co-purification of MN (Mtw1‐Nnf1 complex (MN))
1 | Mif2‐ΔN: Mif2 lacking the N-terminus (Mif2-D1-35) | closely associated with spindle pole bodies | viable | lethality | not Mif2‐ΔN, was able to rescue the lethality | tolerated well and did not greatly impact yeast viability | – | –
2 | Mif2‐ΔsigAT: Mif2 variant that lacks signature motif and AT-hook (protein, left off: Flag, C-terminal, kept, Mif2 variant that lacks signature motif and AT-hook) MDYMKLGLKSRKTGIDVKQDIPKDEYSMENIDDFFKDDETSLISMRRKSRRKSSLFLPSTLNGDTKNVLPPFLQSYKSQDDEVVQSPSGKGDGSRRSSLLSHQSNFLSPANDFEPIEEEPEQEENDIRGNDFATPITQKLSKPTYKRKYSTRYSLDTSESPSVRLTPDRITNKNVYSDVPDLVADEDDDDRVNTSLNTSDNALLEDELEDDGFIPESEEDGDYIESDSSLDSGSDSASDSDGDNTYQEVEEEAEVNTNDNEDDYIRRQASDVVRTDSIIDRNGAKENLIPEDPNEDIIERIESGGIENGEWLKHGILEANVKISDTKEETKDEIIAFAPNLSQTEQVKDTKDENFALEIMFDKHKEYFASGILKLPAISGQKKLSNSFRTYITFHVIQGIVEVTVCKNKFLSVKGSTFQIPAFNEYAIANRGNDEAKMFFVQVTVSEDANDDNDKELDSTFDTFG | – | – | – | – | impairs growth | increased binding to MN as compared to Mif2‐wt | able to co‐purify a significantly increased amount of MN
